According to patent US11083725B2 (priority 2014, dated 2021):

Tested on: NHBE cells
Test: Biolog metabolic array: substrate use by NHBE cells with or without CA09 infection
Assay type: cell-based, human
Details: for Substrate use, 590 nm absorbance normalized to zero hour, 0 hr: Biolog PMM2, 0 hr; for Substrate use, 590 nm absorbance normalized to zero hour, 1 hr: Biolog PMM2, 1 hr; for Substrate use, 590 nm absorbance normalized to zero hour, 5 hr: Biolog PMM2, 5 hr; for Substrate use, 590 nm absorbance normalized to zero hour, 7 hr: Biolog PMM2, 7 hr
[1] = Control (uninfected) NHBE cells
[2] = Virus (CA09-infected NHBE cells, MOI 1)
[3] = Virus: CA09-infected NHBE cells, MOI 1, Biolog PMM2
[4] = Virus (CA09, MOI 1) infected NHBE cells
[5] = Virus (CA09-infected, MOI 1) NHBE cells

| Compound | 590 nm absorbance normalized to zero hour (substrate use), 0 hr [1] | 590 nm absorbance normalized to zero hour (substrate use), 1 hr [1] | 590 nm absorbance normalized to zero hour (substrate use), 2 hr [1] | 590 nm absorbance normalized to zero hour (substrate use), 3 hr [1] | 590 nm absorbance normalized to zero hour (substrate use), 4 hr [1] | 590 nm absorbance normalized to zero hour (substrate use), 6 hr [1] | 590 nm absorbance normalized to zero hour (substrate use), 8 hr [1] | 590 nm absorbance normalized to zero hour (substrate use), 9 hr [1] | 590 nm absorbance normalized to zero hour (substrate use), 10 hr [1] | 590 nm absorbance normalized to zero hour (substrate use), 11 hr [1] | Substrate use, 590 nm absorbance normalized to zero hour, 0 hr [1] | Substrate use, 590 nm absorbance normalized to zero hour, 1 hr [1] | Substrate use, 590 nm absorbance normalized to zero hour, 5 hr [1] | Substrate use, 590 nm absorbance normalized to zero hour, 7 hr [1] | 590 nm absorbance normalized to zero hour (substrate use), 0 hr [2] | 590 nm absorbance normalized to zero hour (substrate use), 1 hr [2] | 590 nm absorbance normalized to zero hour (substrate use), 2 hr [2] | 590 nm absorbance normalized to zero hour (substrate use), 3 hr [2] | 590 nm absorbance normalized to zero hour (substrate use), 5 hr [2] | 590 nm absorbance normalized to zero hour (substrate use), 6 hr [2] | other results |
| --- | --- | --- | --- | --- | --- | --- | --- | --- | --- | --- | --- | --- | --- | --- | --- | --- | --- | --- | --- | --- | --- |
| O=C(O)C(O)C(O)C(=O)O (stereo not drawn) [m-Tartaric Acid] | 1.00 | 1.39 | 1.72 | 2.14 | 2.16 | 3.24 | 2.82 | 2.95 | 2.65 | 2.75 | 1.00 | 1.39 | 2.42 | 2.70 | 1.00 | 1.50 | 1.66 | 1.90 | 2.05 | 2.17 | 590 nm absorbance normalized to zero hour (substrate use), 4 hr [2]: 1.96; 590 nm absorbance normalized to zero hour (substrate use), 7 hr [2]: 2.23; 590 nm absorbance normalized to zero hour (substrate use), 8 hr [2]: 2.28; 590 nm absorbance normalized to zero hour (substrate use), 9 hr [2]: 2.43; 590 nm absorbance normalized to zero hour (substrate use), 10 hr [2]: 2.40; 590 nm absorbance normalized to zero hour (substrate use), 11 hr [2]: 2.41; 590 nm absorbance normalized to zero hour (substrate use), 0 hr [3]: 1.00; 590 nm absorbance normalized to zero hour (substrate use), 1 hr [3]: 1.50; 590 nm absorbance normalized to zero hour (substrate use), 2 hr [3]: 1.66; 590 nm absorbance normalized to zero hour (substrate use), 3 hr [3]: 1.90; 590 nm absorbance normalized to zero hour (substrate use), 4 hr [3]: 1.96; 590 nm absorbance normalized to zero hour (substrate use), 5 hr [3]: 2.05; 590 nm absorbance normalized to zero hour (substrate use), 6 hr [3]: 2.17; 590 nm absorbance normalized to zero hour (substrate use), 7 hr [3]: 2.23; 590 nm absorbance normalized to zero hour (substrate use), 8 hr [3]: 2.28; 590 nm absorbance normalized to zero hour (substrate use), 9 hr [3]: 2.43; 590 nm absorbance normalized to zero hour (substrate use), 10 hr [3]: 2.40; 590 nm absorbance normalized to zero hour (substrate use), 11 hr [3]: 2.41 |
| CC(=O)N[C@H]1[C@H]([C@H](O)[C@H](O)CO)OC(O)(C(=O)O)C[C@@H]1O (stereo partly drawn) [n-acetyl-neuraminic acid] | 1.00 | 0.19 | 0.21 | 0.19 | 0.20 | 0.36 | 0.27 | 0.29 | 0.32 | 0.25 | 1.00 | 0.19 | 0.23 | 0.26 |  |  |  |  |  |  | Substrate use, 590 nm absorbance normalized to zero hour, 0 hr [4]: 1.00; Substrate use, 590 nm absorbance normalized to zero hour, 1 hr [4]: 4.77; Substrate use, 590 nm absorbance normalized to zero hour, 5 hr [4]: 1.43; Substrate use, 590 nm absorbance normalized to zero hour, 7 hr [4]: 1.58; 590 nm absorbance normalized to zero hour (substrate use), 0 hr [5]: 1.00; 590 nm absorbance normalized to zero hour (substrate use), 1 hr [5]: 4.77; 590 nm absorbance normalized to zero hour (substrate use), 2 hr [5]: 3.35; 590 nm absorbance normalized to zero hour (substrate use), 3 hr [5]: 3.95; 590 nm absorbance normalized to zero hour (substrate use), 4 hr [5]: 3.57; 590 nm absorbance normalized to zero hour (substrate use), 6 hr [5]: 2.71; 590 nm absorbance normalized to zero hour (substrate use), 8 hr [5]: 1.60; 590 nm absorbance normalized to zero hour (substrate use), 9 hr [5]: 1.61; 590 nm absorbance normalized to zero hour (substrate use), 10 hr [5]: 1.82; 590 nm absorbance normalized to zero hour (substrate use), 11 hr [5]: 2.21 |
| Chondroitin Sulfate C | 1.00 | 1.60 | 1.94 | 2.10 | 2.19 | 3.28 | 2.56 | 2.92 | 3.00 | 2.49 | 1.00 | 1.60 | 2.50 | 2.63 | 1.00 | 1.22 | 1.41 | 1.45 | 1.62 | 1.61 | 590 nm absorbance normalized to zero hour (substrate use), 7 hr [2]: 1.63; 590 nm absorbance normalized to zero hour (substrate use), 8 hr [2]: 1.65; 590 nm absorbance normalized to zero hour (substrate use), 9 hr [2]: 1.72; 590 nm absorbance normalized to zero hour (substrate use), 10 hr [2]: 1.69; 590 nm absorbance normalized to zero hour (substrate use), 11 hr [2]: 1.75; 590 nm absorbance normalized to zero hour (substrate use), 0 hr [3]: 1.00; 590 nm absorbance normalized to zero hour (substrate use), 1 hr [3]: 1.22; 590 nm absorbance normalized to zero hour (substrate use), 2 hr [3]: 1.41; 590 nm absorbance normalized to zero hour (substrate use), 3 hr [3]: 1.45; 590 nm absorbance normalized to zero hour (substrate use), 5 hr [3]: 1.62; 590 nm absorbance normalized to zero hour (substrate use), 6 hr [3]: 1.61; 590 nm absorbance normalized to zero hour (substrate use), 7 hr [3]: 1.63; 590 nm absorbance normalized to zero hour (substrate use), 8 hr [3]: 1.65; 590 nm absorbance normalized to zero hour (substrate use), 9 hr [3]: 1.72; 590 nm absorbance normalized to zero hour (substrate use), 10 hr [3]: 1.69; 590 nm absorbance normalized to zero hour (substrate use), 11 hr [3]: 1.75 |
